These results are taken from patent US9783556B2, “Kinase inhibitors” (RESPIVERT LIMITED, priority 2012, dated 2017).

Read-outs that look alike come from different tables or passages of the source. Bounds are passed on as bounds.

Assay [1] concerns TNBS-induced colitis in mice. Briefly: TNBS-induced colitis in mice. Format: in vivo. The protocol: On Day 0 of the study TNBS (200 μL) is administered intra-colonically via a plastic catheter followed by BID dosing of the vehicle, reference or test compound for 2 or 4 days. During the study animals are weighed every day and stool observations are made and recorded as a score, based on stool consistency. At the time of sacrifice on Day 2 (or Day 4) the large intestine is removed and the length and weight recorded. Sections of the colon are taken for either MPO analysis to determine neutrophil infiltration or for histopathology involving scoring to determine disease severity.

In assay [2] the test system is HT29 cells. Put plainly: IL-1β-induced IL-8 release in HT29 cells. Conditions: Homo sapiens, HT-29, IL-1β-stimulated HT29 cells, read-out: IC50 Values for Inhibition of Cytokine Release HT29 cells IL-8. Format: cell-based. The method, then:
HT29 cells, a human colon adenocarcinoma cell line, are plated in a 96 well plate (24 hrs) and pre-treated with compounds at the desired concentration for 2 hours before addition of 5 ng/mL of IL-1β (Abcam) for 24 hours. Supernatants are harvested for IL-8 quantification by Sandwich ELISA (Duo-set, R&D System). The IC50 is determined from the dose response curve.

Assay [3] has as its system PBMCs. Briefly: LPS-induced TNFα/IL-8 release in PBMC cells. Format: cell-based. To be noted: Homo sapiens, LPS-stimulated PBMCs, IL-8, read-out: IC50 Values for Inhibition of Cytokine Release PBMCs IL-8. The protocol:
Peripheral blood mononuclear cells (PBMCs) from healthy subjects are separated from whole blood using a density gradient (Lymphoprep, Axis-Shield Healthcare). The PBMCs are seeded in 96 well plates and treated with compounds at the desired concentration for 2 hours before addition of 1 ng/mL LPS (Escherichia Coli 0111:B4 from Sigma Aldrich) for 24 hours under normal tissue culture conditions (37° C., 5% CO2). The supernatant is harvested for determination of IL-8 and TNFα concentrations by sandwich ELISA (Duo-set, R&D systems) and read on the fluorescence microplate reader (Varioskan® Flash, ThermoFisher Scientific). The concentration at 50% inhibition (IC50) of IL-8 and TNFα production is calculated from the dose response curve.

In assay [4] the test system is PBMCs. Put plainly: IL-2 and IFN gamma release in CD3/CD28 stimulated PBMC cells. Format: cell-based. Conditions: Homo sapiens. The protocol: PBMCs from healthy subjects are separated from whole blood using a density gradient (Lymphoprep, Axis-Shield Healthcare). Cells are added to a 96 well plate pre-coated with a mixture of CD3/CD38 monoclonal antibodies (0.3 μg/mL eBioscience and 3 μg/mL BD Pharmingen respectively). Compound at the desired concentration is then added to the wells and the plate left for 3 days under normal tissue culture conditions. Supernatants are harvested and IL-2 and IFN gamma release determined by Sandwich ELISA (Duo-set, R&D System). The IC50 is determined from the dose response curve.

For assay [5], the target named is p38 MAPKα isoform (MAPK14) (Homo sapiens (Human), UniProt Q16539). Briefly: p38 MAPKα enzyme inhibition (Z-LYTE FRET). The format is biochemical. The method, then:
(§1) The enzyme inhibitory activities of compounds disclosed herein are determined by FRET using synthetic peptides labelled with both donor and acceptor fluorophores (Z-LYTE, Invitrogen Ltd., Paisley, UK).
The following two assay variants can be used for determination of p38 MAPKα inhibition.
The inhibitory activities of test compounds against the p38 MAPKα isoform (MAPK14: Invitrogen), are evaluated indirectly by determining the level of activation/phosphorylation of the down-stream molecule, MAPKAP-K2. The p38 MAPKα protein (80 ng/mL, 2.5 μL) is mixed with the test compound (2.5 μL of either 4 μg/mL, 0.4 μg/mL, 0.04 μg/mL or 0.004 μg/mL) for 2 hr at RT. […] The mixture is incubated for 1 hr at RT. Development reagent (protease, 5 μL) is added for 1 hr prior to detection in a fluorescence microplate reader (Varioskan® Flash, ThermoFisher Scientific).
This method follows the same steps as Method 1 above, but utilises a higher concentration of the p38 MAPKα protein (2.5 μL of 200 ng/mL protein instead of 2.5 μL of 80 ng/mL protein) for mixing with the test compound.
(§2) In all cases, the site-specific protease cleaves non-phosphorylated peptide only and eliminates the FRET signal. Phosphorylation levels of each reaction are calculated using the ratio of coumarin emission (donor) over fluorescein emission (acceptor), for which high ratios indicate high phosphorylation and low ratios indicate low phosphorylation levels. The percentage inhibition of each reaction is calculated relative to non-inhibited control and the 50% inhibitory concentration (IC50 value) is then calculated from the concentration-response curve.

For assay [6], the target named is c-Src (Homo sapiens (Human), UniProt P12931). Put plainly: c-Src enzyme inhibition (Z-LYTE FRET). The format is biochemical. The method, then:
as §1
(§3) The inhibitory activities of compounds of the invention against c-Src and Syk enzymes (Invitrogen), are evaluated in a similar fashion to that described hereinabove. The relevant enzyme (3000 ng/mL or 2000 ng/mL respectively, 2.5 μL) is incubated with the test compound (either 4 μg/mL, 0.4 μg/mL, 0.04 μg/mL, or 0.004 μg/mL, 2.5 μL each) for 2 hr at RT. The FRET peptides (8 μM, 2.5 μL), and appropriate ATP solutions (2.5 μL, 800 μM for c-Src, and 60 μM ATP for Syk) are then added to the enzymes/compound mixtures and incubated for 1 hr. Development reagent (protease, 5 μL) is added for 1 hr prior to detection in a fluorescence microplate reader (Varioskan® Flash, ThermoFisher Scientific).
as §2

In assay [7] the test system is d-U937 cells. Put plainly: LPS-induced TNFα/IL-8 release in d-U937 cells. Format: cell-based. To be noted: Homo sapiens, dU937, LPS-stimulated d-U937 cells. The method, then:
U937 cells, a human monocytic cell line, are differentiated to macrophage-type cells by incubation with phorbol myristate acetate (PMA; 100 ng/mL) for 48 to 72 hr. Cells are pre-incubated with final concentrations of test compound for 2 hr and are then stimulated with 0.1 μg/mL of LPS (from E. Coli: O111:B4, Sigma) for 4 hr. The supernatant is collected for determination of TNFα and IL-8 concentrations by sandwich ELISA (Duo-set, R&D systems). The inhibition of TNFα production is calculated as a percentage of that achieved by 10 μg/mL of BIRB796 at each concentration of test compound by comparison against vehicle control. The relative 50% effective concentration (REC50) is determined from the resultant concentration-response curve. The inhibition of IL-8 production is calculated at each concentration of test compound by comparison with vehicle control. The 50% inhibitory concentration (IC50) is determined from the resultant concentration-response curve.

Assay [8] addresses GSK 3α (Homo sapiens (Human), UniProt P49840). Briefly: GSK 3α enzyme inhibition (Z-LYTE FRET). Format: biochemical. To be noted: read-out: IC50 Values for Enzyme Inhibition GSK3α. The method, then:
as §1
The following two assay variants can be used for determination of GSK 3α inhibition.
The inhibitory activities of compounds of the invention against the GSK 3α enzyme isoform (Invitrogen), are evaluated by determining the level of activation/phosphorylation of the target peptide. The GSK3-α protein (500 ng/mL, 2.5 μL) is mixed with the test compound (2.5 μL at either 4 μg/mL, 0.4 μg/mL, 0.04 μg/mL, or 0.004 μg/mL) for 2 hr at RT. The FRET peptide (8 μM, 2.5 μL), which is a phosphorylation target for GSK3α, and ATP (40 μM, 2.5 μL) are then added to the enzyme/compound mixture and the resulting mixture incubated for 1 hr. Development reagent (protease, 5 μL) is added for 1 hr prior to detection in a fluorescence microplate reader (Varioskan® Flash, ThermoFisher Scientific).
as §2
This method follows the same steps as Method 1 above, but utilises a shorter period of mixing of the test compound (105 minutes instead of 2 hours) with the GSK3-α protein.

Assay [9] deals with Syk (Homo sapiens (Human), UniProt P43405). Briefly: Syk enzyme inhibition (Z-LYTE FRET). The format is biochemical. The protocol:
as §1, §3, §2

Where [10] appears, read: IL-2, read-out: IC50 Values for Inhibition of Cytokine Release PBMCs IL-2.
The mark [11] stands for this setting: TNBS mice, conducted over 2 days.

Sequence of p38 MAPKα isoform (MAPK14) (Q16539 whole entry, canonical isoform): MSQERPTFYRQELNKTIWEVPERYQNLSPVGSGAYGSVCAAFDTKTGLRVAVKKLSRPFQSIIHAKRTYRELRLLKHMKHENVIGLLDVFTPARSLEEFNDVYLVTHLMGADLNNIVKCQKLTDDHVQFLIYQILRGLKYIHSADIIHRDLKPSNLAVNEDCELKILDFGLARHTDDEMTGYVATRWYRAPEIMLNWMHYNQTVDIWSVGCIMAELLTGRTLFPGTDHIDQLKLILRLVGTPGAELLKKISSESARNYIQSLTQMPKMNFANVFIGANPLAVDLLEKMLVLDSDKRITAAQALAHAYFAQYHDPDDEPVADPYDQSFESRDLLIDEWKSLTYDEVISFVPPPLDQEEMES
Sequence of c-Src (P12931 whole entry, looked up): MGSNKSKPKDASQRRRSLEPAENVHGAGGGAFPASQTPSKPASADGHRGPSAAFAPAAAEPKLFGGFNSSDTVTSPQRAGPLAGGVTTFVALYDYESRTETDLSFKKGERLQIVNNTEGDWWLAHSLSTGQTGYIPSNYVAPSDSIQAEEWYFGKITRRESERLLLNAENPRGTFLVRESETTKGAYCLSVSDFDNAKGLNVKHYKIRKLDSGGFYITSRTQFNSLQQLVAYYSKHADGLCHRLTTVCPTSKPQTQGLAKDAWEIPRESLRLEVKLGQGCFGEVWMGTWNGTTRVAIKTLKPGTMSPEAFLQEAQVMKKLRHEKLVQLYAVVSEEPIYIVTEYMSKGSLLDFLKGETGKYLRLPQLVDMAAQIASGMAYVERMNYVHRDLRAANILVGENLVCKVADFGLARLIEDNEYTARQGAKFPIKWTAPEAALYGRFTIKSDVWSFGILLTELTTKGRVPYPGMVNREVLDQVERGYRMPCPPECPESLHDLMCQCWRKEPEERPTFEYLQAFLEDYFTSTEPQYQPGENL
Sequence of GSK 3α (P49840 whole entry): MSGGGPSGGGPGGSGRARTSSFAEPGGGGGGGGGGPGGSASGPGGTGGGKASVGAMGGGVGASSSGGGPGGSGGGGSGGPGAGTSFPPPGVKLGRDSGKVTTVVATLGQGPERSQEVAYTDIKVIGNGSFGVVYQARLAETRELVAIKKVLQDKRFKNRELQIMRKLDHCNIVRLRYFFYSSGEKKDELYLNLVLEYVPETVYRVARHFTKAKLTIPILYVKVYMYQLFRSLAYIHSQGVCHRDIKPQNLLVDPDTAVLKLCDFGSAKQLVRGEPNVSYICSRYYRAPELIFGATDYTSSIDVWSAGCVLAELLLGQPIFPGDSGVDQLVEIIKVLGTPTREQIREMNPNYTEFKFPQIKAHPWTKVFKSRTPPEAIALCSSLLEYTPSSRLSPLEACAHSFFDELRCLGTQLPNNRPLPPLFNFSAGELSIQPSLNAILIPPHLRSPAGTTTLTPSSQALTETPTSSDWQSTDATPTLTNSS

For `Nc1ccc(O)c(C(=O)O)c1` [Example 5-ASA, 5-aminosalicylic acid, reference compound], the Ulcer grade in assay [1] (TNBS mice, reference item, dose not given, vehicle 3.7 ± 0.3) worked out at 3.0 ± 0.5. Besides, the LP inflammation in [1] (TNBS mice, reference item, dose not given, vehicle 4.1 ± 0.2) is 2.3 ± 0.3.
Take `COc1cc(Nc2nccc(Oc3ccc(NC(=O)Nc4cc([Si](C)(C)C)nn4-c4ccc(C)cc4)c4ccccc34)n2)cc(OCCN2CCOCC2)c1` [Example 13, 1-(4-((2-((3-Methoxy-5-(2-morpholinoethoxy)phenyl)amino)pyrimidin-4-yl)oxy)naphthalen-1-yl)-3-(1-(p-tolyl)-3-(trimethylsilyl)-1H-pyrazol-5-yl)urea]: the half-inhibitory concentration (IC50) is 4.3 nM in assay [2]; 2.3 nM in [3]; 3.9 nM in [4] (setting [10]); above 1000 nM in assay [5]; 170 nM in assay [6]; 1.4 nM in assay [7] (IL-8, read-out: IC50 Values for Inhibition of Cytokine Release dU937 cells IL-8). For the same molecule, the IC50 was 1.1 nM in assay [7] (TNFα, method describes REC50 relative to BIRB796, read-out: IC50 Values for Inhibition of Cytokine Release dU937 cells TNFα); 5640 nM in [8]; 106 nM in assay [9].
With `COCCOCCOCCOc1cc(Nc2nccc(Oc3ccc(NC(=O)Nc4cc([Si](C)(C)C)nn4-c4ccc(C)cc4)c4ccccc34)n2)cc(OC)c1` [Example 21, 1-(4-((2-((3-Methoxy-5-(2-(2-(2-methoxyethoxyl)ethoxy)ethoxy)phenyl)amino)pyrimidin-4-yl)oxy)naphthalen-1-yl)-3-(1-(p-tolyl)-3-(trimethylsilyl)-1H-pyrazol-5-yl)urea], the IC50 in assay [2] amounted to 2 nM; in [3] it was 2 nM; in assay [4] (IFNγ, read-out: IC50 Values for Inhibition of Cytokine Release PBMCs IFNγ), 2 nM; in [4] (setting [10]), 137 nM; in assay [5] it was 204 nM; in assay [6] it was 17 nM. Besides, the IC50 worked out at 11600 nM in assay [8] and 89 nM in assay [9]. The Ulcer grade in [1] (TNBS mice, 1 mg/kg oral BID, 2 days, vehicle 3.7 ± 0.3, non-diseased 0 ± 0) is recorded as 3.3 ± 0.5; in assay [1] (TNBS mice, 5 mg/kg oral BID, 2 days, vehicle 3.7 ± 0.3, non-diseased 0 ± 0), 3.2 ± 0.4. Also, the LP inflammation in assay [1] (TNBS mice, 1 mg/kg oral BID, 2 days, vehicle 4.1 ± 0.2, non-diseased 0.3 ± 0.2) turned out to be 3.8 ± 0.3; in assay [1] (TNBS mice, 5 mg/kg oral BID, 2 days, vehicle 4.1 ± 0.2, non-diseased 0.3 ± 0.2), 2.7 ± 0.3. Further, the “activity in in vivo model of colonic inflammation (histopathology analysis)” value in assay [1] (setting [11]) is reported as “significant activity”. Besides, in assay [1] (setting [11]), the “inflammatory cell infiltrate in the reticular and laminar propria zone” value is “marked reduction”. Further, in assay [1] (dosed orally at 5 mg/kg), the “ulcer grade and epithelial repair compared to the vehicle control” value was “marked improvements”.

By IC50 is commonly meant the concentration at which inhibition is half-maximal.
